Experimental data: publication PMC2359919, “Molecular targeting of retinoic acid metabolism in neuroblastoma: the role of the CYP26 inhibitor R116010 in vitro and in vivo” (British Journal of Cancer, 2007)

Key:
Assay type in all cases: cell-based, human
CYP26A1 = CYP26A1 mRNA expression in neuroblastoma cells, real-time PCR; conditions: 0.1 μM retinoid, 24 h; panel of neuroblastoma cell lines; relative to SH-SY5Y cells treated with 0.01 μM ATRA
Experimental: (§1) SH-SY5Y, SH-EP (N- and S-type cells respectively derived from the parental line SK-N-SH), LAN6, IMR-32, NGP and GIMEN neuroblastoma cell lines were cultured routinely in RPMI 1640 medium containing fetal calf serum (10%) and L-glutamine (2 mM). Cells were grown at 37°C in a humidified incubator containing 5% CO2.
(§2) 13-cis-Retinoic acid and ATRA were dissolved in DMSO and diluted in cell culture medium to obtain final concentrations of 0.1–10 μM. The final concentration of DMSO in all cases was <0.2%. All experiments were performed in dim light and tubes containing retinoids were wrapped in aluminium foil.
CYP26 short hairpin RNAs (shRNAs) were generated using the siSTRIKE U6 Hairpin Cloning System (Promega, Southampton, UK). The CYP26A1, B1 and Ctrl siRNA sequences were designed using Promega software. […]
(§3) RNA was reverse-transcribed using Promega's Reverse Transcription System according to the manufacturer's instructions, using random hexamer primers. […] As internal standard, β-actin was measured simultaneously using the endogenous control assay provided by Applied Biosystems. […] Standard curves were generated from serial dilutions of cDNA prepared from cells treated with ATRA (1 μM) and the data were analysed using the GeneAmp Sequence Detection System software. CYP26C1 expression was analysed as described previously ([Taimi et al, 2004]).

CYP26B1 = CYP26B1 mRNA expression in neuroblastoma cells, real-time PCR; conditions: 24 h
Experimental: as §1, §2
CYP26 short hairpin RNAs (shRNAs) were generated using the siSTRIKE U6 Hairpin Cloning System (Promega, Southampton, UK). The CYP26A1, B1 and Ctrl siRNA sequences were designed using Promega software. The cDNA target sequences were CYP26A1 5′-gcgcatcgagcagaacatt; CYP26B1 5′-gtcgcggagggagaagtat; and Ctrl 5′-gccccgcaattgagaaatg. Sense and antisense strands were annealed and ligated into the linearised psiSTRIKE Neomycin Vector. SH-SY5Y cells were transfected with psi-CYP26A1 or psi-CYP26B1 either singly or in combination, or with psi-Ctrl, in six-well plates (1 μg each) or 75 cm^2 flasks (8.9 μg each) using FuGENE 6 reagent (Roche, Lewes, UK) according to the manufacturer's instructions. After a 6 h transfection, cells were treated with ATRA for 40 h and harvested for RNA isolation and HPLC analysis.
as §3

CRABP II = CRABP II mRNA expression in SH-SY5Y cells, real-time PCR; conditions: ATRA 0.01 μM or 13cisRA 0.1 μM with R116010 1 μM vs retinoid alone, 24 h
Experimental: as §1, §2
as §3, with “primers. Real-time PCR was performed on 20 ng cDNA using TaqMan gene expression products for human CYP26A1, CYP26B1, CRABPII, RARβ and MYCN in combination with the TaqMan Universal PCR master mix (Applied Biosystems, Warrington, UK).” for “primers.”

RARβ = RARβ mRNA expression in SH-SY5Y cells, real-time PCR; conditions: ATRA 0.01 μM or 13cisRA 0.1 μM with R116010 1 μM vs retinoid alone, 24 h
Experimental: as §1, §2
as §3, with “primers. Real-time PCR was performed on 20 ng cDNA using TaqMan gene expression products for human CYP26A1, CYP26B1, CRABPII, RARβ and MYCN in combination with the TaqMan Universal PCR master mix (Applied Biosystems, Warrington, UK).” for “primers.”

[1] = test system: SH-SY5Y, NGP, SH-EP and GIMEN cells; assay: Intracellular all-trans-4-oxo-RA levels in neuroblastoma cells, LC/MS
Experimental: as §1, §2
Cell pellets obtained from retinoid incubations were re-suspended in 2 ml cell culture medium and disrupted by passing the samples several times through a syringe and hypodermic needle (25G × 1 inches, 0.5 mm × 25 mm; Terumo, Somerset, NJ, USA). Tumour and liver tissues were re-suspended in PBS and homogenised (T25 homogeniser, IKA Laboratories, Staufen, Germany). Retinoids were extracted as described previously ([Veal et al, 2002]; [Armstrong et al, 2005b]). Samples were reconstituted in 200 μl mobile phase A (n-hexane:dichloromethane:propan-2-ol, 400 : 1 : 0.27) and analysed by normal-phase HPLC as described previously ([Veal et al, 2002]). For LC/MS analysis, samples were reconstituted in 200 μl mobile phase A (50% acetonitrile, 50% (0.2%) acetic acid, v v^−1).
Resolution of retinoids was performed with a Luna C18(2) column (3 μm, 50 mm × 2 mm) using a Perkin Elmer LC (Beaconsfield, UK) system, consisting of a vacuum degasser, two series 200 pumps, a thermostatically controlled series 200 autosampler and a Waters 2487 UV absorbance detector. Retinoic isomers and metabolites were separated by gradient reversed-phase chromatography. An injection volume of 20 μl with a flow rate of 0.2 ml min^−1 was used with mobile phase A (50% acetonitrile, 50% (0.2%) acetic acid, v v^−1) and mobile phase B (acetonitrile, 0.1% acetic acid, v v^−1). Linear gradients were employed between the specified times as follows: 0, 100% A; 5 min, 100% A; 15 min, 100% B; 20 min, 100% B; 23 min, 100% A; 35 min, 100% A. An Applied Biosystems (Warrington, UK) API-2000 LC/MS/MS triple Q (quadrupole) mass spectrometer with electrospray ionisation source, controlled by Analyst software, was operated in single quadrupole negative mode for the detection of compounds.

| SMILES | CYP26A1 induction (CYP26A1) | CYP26B1 induction (CYP26B1; 0.1 μM retinoid, panel of neuroblastoma cell lines, relative to SH-SY5Y cells treated with 0.01 μM ATRA) | Effect on CYP26B1 expression, R116010 alone (CYP26B1; SH-SY5Y cells, R116010 1 μM alone) | Effect on CYP26B1 expression, co-incubation with retinoid (CYP26B1; SH-SY5Y cells, R116010 1 μM with ATRA or 13cisRA (0.01, 0.1 μM) vs retinoid alone) | Effect on CRABP II expression, co-incubation with retinoid (CRABP II) | Effect on RARβ expression, co-incubation with retinoid (RARβ) | Decrease in AT-4-oxo-RA levels ([1]; NGP cells, 10 μM 13cisRA with 10 μM R116010, 24 h) | Reduction in intracellular AT-4-oxo-RA levels ([1]; NGP cells, 10 μM ATRA with 10 μM R116010, 24 h) | Effect on AT-4-oxo-RA levels ([1]; SH-EP and GIMEN cells, 10 μM 13cisRA with 10 μM R116010, 24 h) | Decrease in AT-4-oxo-RA levels ([1]; SH-SY5Y cells, 10 μM 13cisRA with 10 μM R116010, 24 h) | Reduction in intracellular AT-4-oxo-RA levels ([1]; SH-SY5Y cells, 10 μM ATRA with 10 μM R116010, 24 h) | Effect on intracellular AT-4-oxo-RA levels ([1]; low CYP26-expressing cell lines (SH-EP, GIMEN), 10 μM ATRA with 10 μM R116010, 24 h) |
| --- | --- | --- | --- | --- | --- | --- | --- | --- | --- | --- | --- | --- |
| CC1=C(/C=C/C(C)=C/C=C/C(C)=C/C(=O)O)C(C)(C)CCC1 [ATRA, all-trans-retinoic acid] | induced to various extents in SH-SY5Y, LAN6 and NGP cells | induced in all cell lines examined, except IMR-32 | – | – | – | – | – | – | – | – | – | – |
| C[C@@H]([C@H](c1ccc(Nc2nc3ccccc3s2)cc1)n1ccnc1)N(C)C [R116010] | – | – | no effect | significantly increased | significant increases | significant increases | 13.2 fold | 3.8 fold | no significant effect | 3.5 fold | 3 fold | no significant effect |
